Where a name gives a salt, the structure may show the parent alone.
Test system: bacterial population
Experiment: Microbiocidal activity by the same methods, triethyl citrate alone versus composition
Type: cell-based
Settings: 4.5 w/w % in water q.s. to 100 w/w %, without the Peptide

CCOC(=O)CC(O)(CC(=O)OCC)C(=O)OCC [triethyl citrate, triethyl-2-hydroxypropane-1,2,3-tricarboxylate]
survival of the bacterial population: 25%

From patent publication US9511112B2, “Antibacterial composition for topical use” (GENERAL TOPICS S.r.l., priority 2012, dated 2016)
